# Assay results from US20070191336A1 (priority 2003, published 2007).
# Read-outs that look alike come from different tables or passages of the source.
# How the values were obtained:
# [1] = tested on: LPS-induced TNF-alpha release from human peripheral blood mononuclear leukocytes; assay: Human peripheral blood mononuclear leukocyte cell assay (LPS-induced TNF-alpha release, ELISA); type: cell-based; settings: 25 ng/mL LPS, 16 hours incubation, read-out: IC50 for inhibition of TNF-alpha release
# Protocol: The quantity of LPS-induced tumor necrosis factor-alpha (TNF-alpha) cytokine release is measured by a commercially available Enzyme-Linked Immunosorbent Assay (ELISA) kit. Test compounds are evaluated for their ability to inhibit TNF-alpha release. […] Test compounds evaluated are illustrated in Table 4.
# [2] = molecular target: T1, phospho p-38 alpha kinase (Homo sapiens, UniProt Q16539); assay: P-38 alpha kinase assay (spectrophotometric, pyruvate kinase/lactate dehydrogenase coupled); type: biochemical; settings: for IC50: rates from […] to 2 h time frame; for inhibition at 10 µM / % Inhibition @ concentration: at 10 uM
# T1 construct: purchased Panvera
# [3] = molecular target: p38 MAP kinase (unphosphorylated p38-alpha kinase) (Homo sapiens, UniProt Q16539); assay: P38 MAP kinase binding assay (fluorescence competition with SKF 86002 probe); settings: for Time-dependent: time-dependent if IC50 values decrease with the reaction time (more than two-fold in four hours)
# Protocol: The reaction was initiated by addition of the enzyme. […] By comparison of rfu (relative fluorescence unit) values with that of a control (in the absence of an inhibitor), the percentage of inhibition at each concentration of the inhibitor was calculated. IC50 value for the inhibitor was calculated from the % inhibition values obtained at a range of concentrations of the inhibitor using Prism. When time-dependent inhibition was assessed, the plate was read at multiple reaction times such as 0.5, 1, 2, 3, 4 and 6 hours. The IC50 values were calculated at the each time point. An inhibition was assigned as time-dependent if the IC50 values decrease with the reaction time (more than two-fold in four hours).
# [4] = read-out: % Inhibition @ concentration, Table 3
# Chain of p38 MAP kinase (unphosphorylated p38-alpha kinase) (Q16539 whole entry): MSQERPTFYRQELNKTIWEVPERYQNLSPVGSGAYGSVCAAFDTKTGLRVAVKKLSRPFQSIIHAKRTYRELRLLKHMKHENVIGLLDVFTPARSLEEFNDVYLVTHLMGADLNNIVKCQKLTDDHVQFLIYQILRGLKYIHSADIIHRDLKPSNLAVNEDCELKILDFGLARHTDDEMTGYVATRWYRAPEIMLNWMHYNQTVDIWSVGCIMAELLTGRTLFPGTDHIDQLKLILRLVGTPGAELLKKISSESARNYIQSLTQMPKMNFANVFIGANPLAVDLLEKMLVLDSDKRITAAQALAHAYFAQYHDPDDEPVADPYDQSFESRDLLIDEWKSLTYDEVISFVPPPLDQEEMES
# T1 sequence (Q16539 whole entry): as above
compound,measurement,setting,value
"CC(C)(C)c1cc(NC(=O)Nc2cccc3ccccc23)n(-c2cccc(CN3C(=O)CNS3(=O)=O)c2)n1 [Example 3, 1-(3-tert-butyl-1-{[3-(1,1,3-trioxo-[1,2,5]thiadiazolidin-2-yl)methyl]phenyl}-1H-pyrazol-5-yl)-3-(naphthalen-1-yl)urea]",IC50,[1],6100 nM
CC1(C(=O)O)CC2(C)CC(C)(C1)C(=O)N(Cc1cccc(-n3nc(C(C)(C)C)cc3NC(=O)Nc3cccc4ccccc34)c1)C2=O (centres unmarked) [Example 11],IC50,[2]; Table 2,953 nM
same,IC50,[3]; read-out: IC50,2150 nM
same,Time-dependent,[3],No
CC1(C(=O)O)CC2(C)CC(C)(C1)C(=O)N(Cc1cccc(-n3nc(C(C)(C)C)cc3NC(=O)Nc3ccc(Cl)cc3)c1)C2=O (centres unmarked) [Example 12],inhibition at 10 µM,"[2]; read-out: % inhibition @ concentration, Table 2",70%
same,IC50,[3],~10000 nM
same,Time-dependent,[3],No
"CC1(C)C(=O)NN(Cc2cccc(-n3nc(C(C)(C)C)cc3NC(=O)Nc3cccc4ccccc34)c2)C1=O [Example 13, 1-(3-tert-butyl-1-{3-[(4,4-dimethyl-3,5-dioxopyrazolidin-1-yl)methyl]phenyl}-1H-pyrazol-5-yl)-3-(naphthalen-1-yl)urea]",IC50,[1],6320 nM
"CC(C)(C)c1cc(NC(=O)Nc2cccc3ccccc23)n(-c2cccc(CC(=O)N3CCOCC3)c2)n1 [Example 21, 1-{3-tert-butyl-1-[3-(2-morpholino-2-oxoethyl)phenyl]-1H-pyrazol-5-yl}-3-(naphthalene-1-yl)urea]",IC50,[2]; Table 2,171 nM
same,IC50,[3],48 nM
same,Time-dependent,[3],Yes
same,IC50,[1],3400 nM
CC(C)(C)c1cc(NC(=O)Nc2cccc3ccccc23)n(-c2cccc(CCC(=O)O)c2)n1 [Example 29],IC50,[1],2680 nM
"CC(C)(C)c1cc(NC(=O)Nc2cccc3ccccc23)n(-c2ccc(CCC(=O)O)cc2)n1 [Example 31, 3-{4-[3-tert-butyl-5-(3-(naphthalene-1-yl)ureido]-1H-pyrazol-1-yl}phenyl)propanonic acid]",IC50,[1],4520 nM
"CC(C)(C)c1cc(NC(=O)Nc2cccc3ccccc23)n(-c2ccc(CN)cc2)n1 [Example 45, 1-{3-tert-butyl-1-[4-(aminomethyl)phenyl]-1H-pyrazol-5-yl}-3-(naphthalen-1-yl)urea]",IC50,[2]; Table 2,480 nM
same,IC50,[3]; read-out: IC50,1860 nM
same,Time-dependent,[3],No
CC(C)(C)c1cc(NC(=O)Nc2ccc(Br)cc2)n(-c2ccc(CO)cc2)n1 [Example 60],IC50,[1],2340 nM
"CCOC(=O)CCc1ccc(-n2nc(C(C)(C)C)cc2NC(=O)Nc2cccc3ccccc23)cc1 [Example 296, ethyl 3-(4-(3-tert-butyl-5-(3-(naphthalen-1-yl)ureido)-1H-pyrazol-1-yl)phenyl)propanoate]",IC50,[1],3490 nM
CC(C)(C)c1cc(NC(=O)Nc2cccc3ccccc23)n(-c2cccc(CCN3CCOCC3)c2)n1 [Example 300],IC50,[1],4780 nM
"Cn1[nH]c(=O)n(Cc2cccc(-n3nc(C(C)(C)C)cc3NC(=O)Nc3cccc(Cl)c3Cl)c2)c1=O [Example 511, 1-{5-t-butyl-2-[3-(1-methyl-3,5-dioxo-[1,2,4]triazolidin-4-ylmethyl)-phenyl]-2H-pyrazol-3-yl}-3-(2,3-dichloro-phenyl)-urea]",IC50,[2]; Table 3,24 nM
"CC(=O)N1CCc2ccc(-n3nc(C(C)(C)C)cc3NC(=O)Nc3cccc(Cl)c3Cl)cc2C1 [Example 512, 1-[1-(2-acetyl-1,2,3,4-tetrahydroisoquinolin-7-yl)-3-t-butyl-1H-pyrazol-5-yl]-3-(2,3-dichlorophenyl)urea]",IC50,[2]; Table 3,32 nM
"CC(C)(C)c1cc(NC(=O)Nc2ccc3c(c2)OCO3)n(-c2ccc3c(c2)CNCC3)n1 [Example 513, 1-benzo[d][1,3]dioxol-5-yl-3-[3-t-butyl-1-(1,2,3,4-tetrahydroisoquinolin-7-yl)-1H-pyrazol-5-yl]urea]",IC50,[2]; Table 3,410 nM
"CC(C)c1cc(NC(=O)Nc2cccc3ccccc23)n(-c2ccc(C(O)C(F)(F)F)cc2)n1 (centres unmarked) [Example 514, 1-(1-(4-(2,2,2-trifluoro-1-hydroxyethyl)phenyl)-3-isopropyl-1H-pyrazol-5-yl)-3-(naphthalen-1-yl)urea]",IC50,[2]; Table 3,570 nM
"CC(C)(C)c1cc(NC(=O)Nc2ccc(Cl)cc2)n(-c2cccc(C(O)C(F)(F)F)c2)n1 (centres unmarked) [Example 516, 1-(3-t-butyl-1-(3-(2,2,2-trifluoro-1-hydroxyethyl)phenyl)-1H-pyrazol-5-yl)-3-(4-chlorophenyl)urea]",IC50,[2]; Table 3,450 nM
"COC(=O)COc1ccc(-n2nc(C(C)(C)C)cc2NC(=O)Nc2cccc3ccccc23)cc1 [Example 519, 1-(3-t-butyl-1-(4-(carbomethoxymethyl)oxyphenyl)-1H-pyrazol-5-yl)-3-(naphthalen-1-yl)urea]",IC50,[2]; Table 3,52 nM
"CC(C)(C)c1cc(NC(=O)Nc2cccc3ccccc23)n(-c2ccc(OCC(=O)O)cc2)n1 [Example 520, 1-(3-t-butyl-1-(4-(carboxymethyl)oxyphenyl)-1H-pyrazol-5-yl)-3-(naphthalen-1-yl)urea]",IC50,[2]; Table 3,9.2 nM
"CC(C)(C)c1cc(NC(=O)Nc2ccccc2)n(-c2ccc(O)cc2)n1 [Example 522, 1-(3-t-butyl-1-(4-hydroxyphenyl)-1H-pyrazol-5-yl)-3-phenylurea]",IC50,[2]; Table 3,780 nM
CCOC(=O)COc1ccc(-n2nc(C(C)(C)C)cc2NC(=O)Nc2ccc(Cl)cc2)cc1 [Example 525],inhibition at 1 µM,[2]; [4],11%
"CC(C)(C)c1cc(NC(=O)Nc2ccc(Cl)cc2)n(-c2ccc(OCC(=O)O)cc2)n1 [Example 526, 1-(3-t-butyl-1-(4-(carboxymethyl)oxyphenyl)-1H-pyrazol-5-yl)-3-(4-chlorophenyl-1-yl)urea]",inhibition at 0.1 µM,"[2]; read-out: % Inhibition @ concentration, Table 3, at 0.1 uM",25%
same,inhibition at 1 µM,[2]; [4],70%
"CC(C)(C)c1cc(NC(=O)Nc2cccc3ccccc23)n(-c2cccc(OCCCN3CCS(=O)(=O)CC3)c2)n1 [Example 528, 1-(5-t-butyl-2-{3-[3-(1,1-dioxo-16-thiomorpholin-4-yl)-propoxy]-phenyl}-2H-pyrazol-3-yl)-3-naphthalen-1-yl-urea]",inhibition at 1 µM,[2]; [4],35%
"CCOC(=O)CCc1cccc(-n2nc(C(F)(F)F)cc2NC(=O)Nc2ccc(Cl)cc2)c1 [Example 529, 3-(3-{5-[3-(4-chloro-phenyl)-ureido]-3-trifluoromethyl-pyrazol-1-yl}-phenyl)-propionic acid ethyl ester]",inhibition at 10 µM,[2]; [4],40%
"O=C(O)CCc1cccc(-n2nc(C(F)(F)F)cc2NC(=O)Nc2ccc(Cl)cc2)c1 [Example 530, 3-(3-(5-(3-(4-chlorophenyl)ureido)-3-(trifluoromethyl)-1H-pyrazol-1-yl)phenyl)propanoic acid]",inhibition at 10 µM,[2]; [4],83%
"CCOC(=O)CCc1cccc(-n2nc(C)cc2NC(=O)Nc2ccc(Cl)cc2)c1 [Example 531, 3-(3-{5-[3-(4-chloro-phenyl)-ureido]-3-methyl-pyrazol-1-yl}-phenyl)-propionic acid ethyl ester]",inhibition at 10 µM,[2]; [4],14%
CC(C)c1cc(NC(=O)Nc2ccc(Cl)cc2)n(-c2cccc(CCC(=O)O)c2)n1 [Example 532],% Inhibition @ concentration,[2]; Table 3,66% @ 10
"CC(C)c1cc(NC(=O)Nc2ccc(Cl)cc2)n(-c2cccc(CCC(=O)O)c2)n1 [Example 533, 3-(3-(5-(3-(4-chlorophenyl)ureido)-3-isopropyl-1H-pyrazol-1-yl)phenyl)propanoic acid]",% Inhibition @ concentration,[2]; Table 3,39% @ 10
CC(C)(C)c1cc(NC(=O)Nc2ccc(Cl)cc2)n(-c2cccc(CO)c2)n1 [Example F],IC50,[2]; Table 2,437 nM
